Experimental data published in the Deep4Chem optical property database.

Experiment: solvent given as SMILES

Question: With `CCCCCCCCC1(CCCCCCCC)c2cc(-c3ccc([Si](C)(C)C)cc3)ccc2-c2ccc(-c3ccc([Si](C)(C)C)cc3)cc21` as the compound, how does the fluorescence lifetime (in CN(C)C=O) read?
Answer: Its fluorescence lifetime is 1.01 ns.

Question: With `F[B-]1(F)OC(c2ccc(N3CCCC3)cc2)=Cc2cccc[n+]21` as the compound, how does the fluorescence lifetime (in ClC(Cl)Cl) read?
Answer: Its fluorescence lifetime is 2.72 ns.

Question: With `COC(=O)c1ccc(Oc2ccc3c4c(cccc24)C(=O)N(c2c(C(C)C)cccc2C(C)C)C3=O)cc1` as the compound, how does the fluorescence lifetime (in ClCCl) read?
Answer: Its fluorescence lifetime is 3.37 ns.

Question: With `Cc1ccc(C#Cc2ccc(C#Cc3ccc(C#Cc4ccccc4C#N)cc3C#N)cc2C#N)cc1` as the compound, how does the fluorescence lifetime (in ClC(Cl)Cl) read?
Answer: The fluorescence lifetime was 1.23 ns.

Question: For `c1ccc(-c2nc(-c3ccccc3)nc(-c3cc(-n4c5ccccc5c5ncccc54)c(-n4c5ccccc5c5ccccc54)c(-n4c5ccccc5c5ncccc54)c3)n2)cc1`, which fluorescence lifetime (in O=P(c1ccccc1)(c1ccccc1)c1ccccc1Oc1ccccc1P(=O)(c1ccccc1)c1ccccc1) is on record?
Answer: Its fluorescence lifetime is 6 ns.

Question: With `CCCCCCN(CCCCCC)c1ccc(C#Cc2ccc(C#N)cc2)cc1` as the compound, how does the fluorescence lifetime (in CC#N) read?
Answer: Its fluorescence lifetime is 1 ns.

Question: What about the fluorescence lifetime (in CO) of the same compound?
Answer: The fluorescence lifetime was 1 ns.

Question: What about the fluorescence lifetime (in ClCCl) of the same compound?
Answer: Its fluorescence lifetime is 2.8 ns.

Question: For `N#Cc1c(-n2c3ccccc3c3cc(Br)ccc32)c(C#N)c(-n2c3ccccc3c3cc(Br)ccc32)c(-n2c3ccccc3c3cc(Br)ccc32)c1-n1c2ccccc2c2cc(Br)ccc21`, which fluorescence lifetime (in Cc1ccccc1) is on record?
Answer: The fluorescence lifetime was 0.4 ns.

Question: What does the source list for `[C-]#[N+]c1ccc(-c2ccc(NC)cc2)cc1`?
Answer: fluorescence lifetime (in CC#N): 1.8 ns; fluorescence lifetime (in CCOC(C)=O): 1.4 ns

Question: Which fluorescence lifetime (in CC1CCCCC1) does the source give for `COC(=O)C(NC(=O)OC(C)(C)C)c1ccc2oc(-c3ccc(OC(=O)c4ccccc4)cc3OC(=O)c3ccccc3)nc2c1` (stereo not drawn) here?
Answer: The fluorescence lifetime was 0.358 ns.

Question: And the fluorescence lifetime (in CC#N)?
Answer: The fluorescence lifetime was 0.003 ns.

Question: What about the fluorescence lifetime (in CO) of the same compound?
Answer: The fluorescence lifetime was 0.01 ns.

Question: For `COc1ccc(-c2c3cc4cc(C)sc4cc3c(C#Cc3ccccc3)c3cc4cc(C)sc4cc23)cc1`, which fluorescence lifetime (in ClCCl) is on record?
Answer: Its fluorescence lifetime is 10.8 ns.

Question: For `CN(C)c1ccc(/C=C2\CC/C(=C\c3ccc(C#N)cc3)C2=O)cc1`, which fluorescence lifetime (in C1CCOC1) is on record?
Answer: Its fluorescence lifetime is 0.18 ns.

Question: And the fluorescence lifetime (in CC#N)?
Answer: Its fluorescence lifetime is 0.17 ns.

Question: And the fluorescence lifetime (in CC(C)=O)?
Answer: The fluorescence lifetime was 0.23 ns.

Question: What about the fluorescence lifetime (in CC(C)O) of the same compound?
Answer: Its fluorescence lifetime is 0.21 ns.

Question: And the fluorescence lifetime (in CCCCO)?
Answer: The fluorescence lifetime was 0.22 ns.

Question: And the fluorescence lifetime (in CCCCOC(C)=O)?
Answer: The fluorescence lifetime was 1.01 ns.

Question: What about the fluorescence lifetime (in CCCO) of the same compound?
Answer: Its fluorescence lifetime is 0.18 ns.

Question: What about the fluorescence lifetime (in CCO) of the same compound?
Answer: Its fluorescence lifetime is 0.14 ns.

Question: What about the fluorescence lifetime (in CCOC(=O)c1ccccc1) of the same compound?
Answer: Its fluorescence lifetime is 1.24 ns.

Question: What about the fluorescence lifetime (in CCOC(C)=O) of the same compound?
Answer: The fluorescence lifetime was 0.9 ns.

Question: And the fluorescence lifetime (in CCOCC)?
Answer: Its fluorescence lifetime is 0.89 ns.

Question: And the fluorescence lifetime (in CN(C)C=O)?
Answer: The fluorescence lifetime was 0.18 ns.

Question: And the fluorescence lifetime (in CO)?
Answer: The fluorescence lifetime was 0.13 ns.

Question: And the fluorescence lifetime (in CS(C)=O)?
Answer: The fluorescence lifetime was 0.19 ns.

Question: What about the fluorescence lifetime (in Cc1ccccc1) of the same compound?
Answer: The fluorescence lifetime was 0.56 ns.

Question: What about the fluorescence lifetime (in ClC(Cl)(Cl)Cl) of the same compound?
Answer: The fluorescence lifetime was 0.17 ns.

Question: What about the fluorescence lifetime (in ClC(Cl)Cl) of the same compound?
Answer: Its fluorescence lifetime is 2.08 ns.

Question: And the fluorescence lifetime (in ClCCl)?
Answer: Its fluorescence lifetime is 1.29 ns.

Question: And the fluorescence lifetime (in Clc1ccccc1Cl)?
Answer: The fluorescence lifetime was 2.18 ns.

Question: What about the fluorescence lifetime (in O=C1CCCC1) of the same compound?
Answer: The fluorescence lifetime was 0.31 ns.

Question: What about the fluorescence lifetime (in S=C=S) of the same compound?
Answer: Its fluorescence lifetime is 0.28 ns.

Question: And the fluorescence lifetime (in c1ccccc1)?
Answer: The fluorescence lifetime was 0.76 ns.

Question: And the fluorescence lifetime (in c1ccncc1)?
Answer: Its fluorescence lifetime is 0.41 ns.

Question: Which fluorescence lifetime (in C1CCOC1) does the source give for `N#Cc1ccc(C2=CC3=c4cc(-c5ccc(C#N)cc5)c5nc(C(F)(F)C(F)(F)C(F)(F)F)nc6c(-c7ccc(C#N)cc7)cc(c4c65)C4=CC(c5ccc(C#N)cc5)=C5N=C(C(F)(F)C(F)(F)C(F)(F)F)N=C2C5C43)cc1` (stereo not drawn) here?
Answer: The fluorescence lifetime was 2.8 ns.

Question: Which fluorescence lifetime (in C1CCOC1) does the source give for `FC(F)(F)C(F)(F)C(F)(F)C1=NC2=C(Oc3ccccc3)C=C3c4cc(Oc5ccccc5)c5nc(C(F)(F)C(F)(F)C(F)(F)F)nc6c(Oc7ccccc7)cc(c4c56)=C4C=C(Oc5ccccc5)C(=N1)C2C34` (stereo not drawn) here?
Answer: The fluorescence lifetime was 2.8 ns.

Question: Which results are given for `COC(=O)c1ccc(C2=C3C=CC(C)=[N+]3[B-](F)(F)n3c(C)ccc32)cc1`?
Answer: fluorescence lifetime (in C1CCCCC1): 0.54 ns; fluorescence lifetime (in Cc1ccccc1): 0.82 ns

Question: With `CC1(C)CC[N+]2=c3c(cc4c(c31)Oc1cc3c(cc1C=4c1ccccc1C(=O)O)C(c1ccccc1C(=O)O)=c1cc4c5c(c1O3)C(C)(C)CC[N+]=5CCC4)CCC2` as the compound, how does the fluorescence lifetime (in ClC(Cl)Cl) read?
Answer: Its fluorescence lifetime is 2.41 ns.

Question: For `C(=C\c1ccc2ccccc2c1)/c1ccc(N(c2ccccc2)c2ccccc2)cc1`, which fluorescence lifetime (in CC#N) is on record?
Answer: Its fluorescence lifetime is 1.09 ns.

Question: What about the fluorescence lifetime (in CCCCCC) of the same compound?
Answer: Its fluorescence lifetime is 0.4 ns.

Question: For `FC(F)(F)c1ccc(-n2c(-c3ccc(N(c4ccc(-c5ccc(N(c6ccc(-c7nc8c9ccccc9c9ccccc9c8n7-c7ccc(C(F)(F)F)cc7)cc6)c6ccc(-c7nc8c9ccccc9c9ccccc9c8n7-c7ccc(C(F)(F)F)cc7)cc6)cc5)cc4)c4ccc(-c5nc6c7ccccc7c7ccccc7c6n5-c5ccc(C(F)(F)F)cc5)cc4)cc3)nc3c4ccccc4c4ccccc4c32)cc1`, which fluorescence lifetime (in ClCCl) is on record?
Answer: Its fluorescence lifetime is 1.61 ns.

Question: With `COC(=O)c1cc(=O)n(C)c2cc(-c3cc(OC)c(OC)c(OC)c3)sc12` as the compound, how does the fluorescence lifetime (in ClCCl) read?
Answer: The fluorescence lifetime was 1.36 ns.

Question: For `c1ccc(-c2nc(-c3ccccc3)nc(-c3ccc(-n4c5ccccc5c5ccc6c7ccccc7n(-c7ccccc7)c6c54)cc3)n2)cc1`, which fluorescence lifetime (in O=P(c1ccccc1)(c1ccccc1)c1ccc2oc3ccc(P(=O)(c4ccccc4)c4ccccc4)cc3c2c1) is on record?
Answer: Its fluorescence lifetime is 11.9 ns.

Question: Which results are given for `c1ccc(-c2ccc(-c3ccc(-c4ccccc4)cc3)cc2)cc1`?
Answer: fluorescence lifetime (in C1CCCCC1): 0.8 ns; fluorescence lifetime (in C1CCOC1): 1 ns

Question: For `CN(C)c1ccc(-c2cc3c(s2)c(C(=O)c2ccccc2)cc(=O)n3Cc2ccccc2)cc1`, which fluorescence lifetime (in ClCCl) is on record?
Answer: Its fluorescence lifetime is 1.01 ns.

Question: Which fluorescence lifetime (in ClC(Cl)Cl) does the source give for `CCCCCCCCCCCCOc1cc2c3c(ccc4c5c(OC6CCC(C(C)(C)C)CC6)cc6c7c(ccc(c1c34)c75)C(=O)N(C1CCCCC1)C6=O)C(=O)N(C1CCCCC1)C2=O` (stereo not drawn) here?
Answer: Its fluorescence lifetime is 5 ns.

Question: Which fluorescence lifetime (in CC#N) does the source give for `COc1ccc2c3c(cccc13)C(=O)c1ccccc1-2` here?
Answer: The fluorescence lifetime was 13.2 ns.

Question: And the fluorescence lifetime (in CC(C)=O)?
Answer: Its fluorescence lifetime is 10.5 ns.

Question: And the fluorescence lifetime (in CC(C)O)?
Answer: The fluorescence lifetime was 12.7 ns.

Question: What about the fluorescence lifetime (in CCCCOCCCC) of the same compound?
Answer: The fluorescence lifetime was 0.6 ns.

Question: What about the fluorescence lifetime (in CCOC(C)=O) of the same compound?
Answer: Its fluorescence lifetime is 4.1 ns.

Question: What about the fluorescence lifetime (in CCOCC) of the same compound?
Answer: The fluorescence lifetime was 0.9 ns.

Question: And the fluorescence lifetime (in CO)?
Answer: Its fluorescence lifetime is 12.6 ns.

Question: What about the fluorescence lifetime (in Cc1ccccc1) of the same compound?
Answer: Its fluorescence lifetime is 1.4 ns.

Question: And the fluorescence lifetime (in Clc1ccccc1)?
Answer: Its fluorescence lifetime is 6 ns.

Question: What about the fluorescence lifetime (in N#Cc1ccccc1) of the same compound?
Answer: The fluorescence lifetime was 14.1 ns.

Question: And the fluorescence lifetime (in O=C1CCCCC1)?
Answer: The fluorescence lifetime was 7.8 ns.
